For 32 molecules, HSA binding and AMP results are on record in paper PMC6816013 (Journal of Medicinal Chemistry, 2019).

Where a name gives a salt, the structure may show the parent alone.

Sequence of HSA (P02768 25-609): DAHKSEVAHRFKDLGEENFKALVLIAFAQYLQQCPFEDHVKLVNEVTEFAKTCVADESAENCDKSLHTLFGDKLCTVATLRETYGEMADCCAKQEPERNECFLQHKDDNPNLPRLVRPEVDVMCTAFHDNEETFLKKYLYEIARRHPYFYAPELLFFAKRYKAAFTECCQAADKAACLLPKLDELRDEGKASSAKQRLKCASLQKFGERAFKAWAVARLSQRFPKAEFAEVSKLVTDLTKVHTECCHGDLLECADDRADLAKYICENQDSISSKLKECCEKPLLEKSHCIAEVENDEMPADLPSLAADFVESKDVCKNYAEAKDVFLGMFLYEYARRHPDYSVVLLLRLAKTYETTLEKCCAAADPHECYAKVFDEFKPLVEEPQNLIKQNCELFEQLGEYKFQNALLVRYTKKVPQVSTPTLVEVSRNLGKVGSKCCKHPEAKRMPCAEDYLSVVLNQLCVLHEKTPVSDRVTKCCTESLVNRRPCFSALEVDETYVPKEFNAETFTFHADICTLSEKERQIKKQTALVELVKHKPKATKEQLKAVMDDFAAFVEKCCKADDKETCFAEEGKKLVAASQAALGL

One data set concerns the target HSA (Homo sapiens, UniProt P02768). Kind of data set: HSA binding (plasma protein binding). Type of data set: in vitro ADME.
Details: not given
Molecule `CCOC(=O)N1CCC(c2nc(-c3ccc(F)cc3)c(-c3ccnc(Nc4ccc(N5CCN(C)CC5)cc4)n3)s2)CC1` [Compound 8] displayed an HSA binding of 98%.

On to `Nc1nc(-c2ccc(F)cc2)c(-c2ccnc(Nc3ccc(N4CCNCC4)cc3)n2)s1` [Compound 12, 4-[2-Amino-4-(4-fluorophenyl)-1,3-thiazol-5-yl]-N-[4-(piperazin-1-yl)phenyl]pyrimidin-2-amine], for which the HSA binding was 98%.

`Fc1ccc(-c2nc(C3CCNCC3)sc2-c2ccnc(Nc3nncs3)n2)cc1` [Compound 19, N-(4-(4-(4-Fluorophenyl)-2-(piperidin-4-yl)thiazol-5-yl)pyrimidin-2-yl)-1,3,4-thiadiazol-2-amine] yielded an HSA binding of 92%.

In the case of `Cc1nnc(Nc2nccc(-c3sc(C4CCNCC4)nc3-c3ccc(F)cc3)n2)s1` [Compound 20, N-(4-(4-(4-Fluorophenyl)-2-(piperidin-4-yl)thiazol-5-yl)pyrimidin-2-yl)-5-methyl-1,3,4-thiadiazol-2-amine], the HSA binding is on record as 92%.

Turning to `CCc1cc(Nc2nccc(-c3sc(C4CCNCC4)nc3-c3ccc(F)cc3)n2)nc(C)c1F` [Compound 36, N-(4-Ethyl-5-fluoro-6-methylpyridin-2-yl)-4-(4-(4-fluorophenyl)-2-(piperidin-4-yl)thiazol-5-yl)pyrimidin-2-amine], the HSA binding is on record as 97%.

Molecule `Cc1nc(Nc2nccc(-c3sc(C4CCNCC4)nc3-c3ccc(F)cc3)n2)cc(C2CCC2)c1F` [Compound 38, N-(4-Cyclobutyl-5-fluoro-6-methylpyridin-2-yl)-4-(4-(4-fluorophenyl)-2-(piperidin-4-yl)thiazol-5-yl)pyrimidin-2-amine] came in with an HSA binding of 98%.

Molecule `OCCNc1nccc(-c2sc(C3CCNCC3)nc2-c2ccc(F)cc2)n1` [Compound 42, 2-({4-[4-(4-Fluorophenyl)-2-(piperidin-4-yl)-1,3-thiazol-5-yl]pyrimidin-2-yl}amino)ethanol] gave an HSA binding of 79%.

`COCCNc1nccc(-c2sc(C3CCNCC3)nc2-c2ccc(F)cc2)n1` [Compound 43, 4-[4-(4-Fluorophenyl)-2-(piperidin-4-yl)-1,3-thiazol-5-yl]-N-(2-methoxyethyl)pyrimidin-2-amine] registered an HSA binding of 80%.

In turn, `Fc1ccc(-c2nc(C3CCNCC3)sc2-c2ccnc(NCC3CCCO3)n2)cc1` (stereo not shown) [Compound 44, 4-[4-(4-Fluorophenyl)-2-(piperidin-4-yl)-1,3-thiazol-5-yl]-N-(tetrahydrofuran-2-ylmethyl)pyrimidin-2-amine] displayed an HSA binding of 86%.

With `CN(C)CCNc1nccc(-c2sc(C3CCNCC3)nc2-c2ccc(F)cc2)n1` [Compound 45, N′-{4-[4-(4-Fluorophenyl)-2-(piperidin-4-yl)-1,3-thiazol-5-yl]pyrimidin-2-yl}-N,N-dimethylethane-1,2-diamine], the HSA binding is 83%.

Take `CN(C)C(CNc1nccc(-c2sc(C3CCNCC3)nc2-c2ccc(F)cc2)n1)C1CC1` (stereo not shown) [Compound 46, 1-Cyclopropyl-N′-{4-[4-(4-fluorophenyl)-2-(piperidin-4-yl)-1,3-thiazol-5-yl]pyrimidin-2-yl}-N,N-dimethylethane-1,2-diamine]: the HSA binding came out at 91%.

For `Fc1ccc(-c2nc(C3CCNCC3)sc2-c2ccnc(NCCN3CCCC3)n2)cc1` [Compound 47, 4-[4-(4-Fluorophenyl)-2-(piperidin-4-yl)-1,3-thiazol-5-yl]-N-[2-(pyrrolidin-1-yl)ethyl]pyrimidin-2-amine], the HSA binding was determined as 86%.

The molecule `CN1CCN(CCNc2nccc(-c3sc(C4CCNCC4)nc3-c3ccc(F)cc3)n2)CC1` [Compound 48, 4-[4-(4-Fluorophenyl)-2-(piperidin-4-yl)-1,3-thiazol-5-yl]-N-[2-(4-methylpiperazin-1-yl)ethyl]pyrimidin-2-amine] yielded an HSA binding of 90%.

For `Fc1ccc(-c2nc(C3CCNCC3)sc2-c2ccnc(NCCN3CCOCC3)n2)cc1` [Compound 49, 4-(4-(4-Fluorophenyl)-2-(piperidin-4-yl)thiazol-5-yl)-N-(2-morpholinoethyl)pyrimidin-2-amine], the HSA binding was 83%.

As to `O[C@H]1CC[C@H](Nc2nccc(-c3sc(C4CCNCC4)nc3-c3ccc(F)cc3)n2)CC1` [Compound 51, trans-4-({4-[4-(4-Fluorophenyl)-2-(piperidin-4-yl)-1,3-thiazol-5-yl]pyrimidin-2-yl}amino)cyclohexanol], the HSA binding was found to be 85%.

`CN1CCC(Nc2nccc(-c3sc(C4CCNCC4)nc3-c3ccc(F)cc3)n2)C1` (stereo not shown) [Compound 52, 4-[4-(4-Fluorophenyl)-2-(piperidin-4-yl)-1,3-thiazol-5-yl]-N-(1-methylpyrrolidin-3-yl)pyrimidin-2-amine] yielded an HSA binding of 89%.

For the molecule `Fc1ccc(-c2nc(C3CCNCC3)sc2-c2ccnc(N3CCCC3)n2)cc1` [Compound 53, 4-[4-(4-Fluorophenyl)-2-(piperidin-4-yl)-1,3-thiazol-5-yl]-2-(pyrrolidin-1-yl)pyrimidine], the HSA binding came to 93%.

Turning to `OC1CCN(c2nccc(-c3sc(C4CCNCC4)nc3-c3ccc(F)cc3)n2)C1` (stereo not shown) [Compound 54, 1-{4-[4-(4-Fluorophenyl)-2-(piperidin-4-yl)-1,3-thiazol-5-yl]pyrimidin-2-yl}pyrrolidin-3-ol], the HSA binding was 85%.

The molecule `Fc1ccc(-c2nc(C3CCNCC3)sc2-c2ccnc(N3CCC(N4CCC4)CC3)n2)cc1` [Compound 55, 2-[4-(Azetidin-1-yl)piperidin-1-yl]-4-[4-(4-fluorophenyl)-2-(piperidin-4-yl)-1,3-thiazol-5-yl]pyrimidine] displayed an HSA binding of 90%.

`Fc1ccc(-c2nc(C3CCNCC3)sc2-c2ccnc(N3CCC(N4CCOCC4)CC3)n2)cc1` [Compound 56, 4-(1-(4-(4-(4-Fluorophenyl)-2-(piperidin-4-yl)thiazol-5-yl)pyrimidin-2-yl)piperidin-4-yl)morpholine]: the HSA binding is recorded as 90%.

For `Fc1ccc(-c2nc(C3CCNCC3)sc2-c2ccnc(N3CCC(CN4CCOCC4)CC3)n2)cc1` [Compound 57, 4-((1-(4-(4-(4-Fluorophenyl)-2-(piperidin-4-yl)thiazol-5-yl)pyrimidin-2-yl)piperidin-4-yl)methyl)morpholine], the HSA binding stood at 93%.

Test system in another data set: not given
Assay: not given
Particulars: PAMPA. In general terms: In PAMPA a lipid-coated filter parts donor from acceptor wells.
Turning to `Fc1ccc(-c2nc(N3CCOCC3)sc2-c2ccnc(Nc3ccc(N4CCNCC4)cc3)n2)cc1` [Compound 9, 4-[4-(4-Fluorophenyl)-2-(morpholin-4-yl)-1,3-thiazol-5-yl]-N-[4-(piperazin-1-yl)phenyl]pyrimidin-2-amine Trifluoroacetate], the AMP came to 2.8.

For `Fc1ccc(-c2nc(N3CCCC3)sc2-c2ccnc(Nc3ccc(N4CCNCC4)cc3)n2)cc1` [Compound 10, 4-[4-(4-Fluorophenyl)-2-(pyrrolidin-1-yl)-1,3-thiazol-5-yl]-N-[4-(piperazin-1-yl)phenyl]pyrimidin-2-amine Trifluoroacetate], the AMP came to 2.7.

For the molecule `CN1CCN(c2ccc(Nc3nccc(-c4sc(N)nc4-c4ccc(F)cc4)n3)cc2)CC1` [Compound 11, 4-[2-Amino-4-(4-fluorophenyl)-1,3-thiazol-5-yl]-N-[4-(4-methylpiperazin-1-yl)phenyl]pyrimidin-2-amine Trifluoroacetate], the AMP was 2.6.

On to `O=C(Nc1nc(-c2ccc(F)cc2)c(-c2ccnc(Nc3ccc(N4CCNCC4)cc3)n2)s1)C1CC1` [Compound 15, N-[4-(4-Fluorophenyl)-5-{2-[4-(piperazin-1-yl)anilino]pyrimidin-4-yl}-1,3-thiazol-2-yl]cyclopropanecarboxamide Trifluoroacetate], for which the AMP stood at 0.2.

`CN1CCC(C(=O)Nc2nc(-c3ccc(F)cc3)c(-c3ccnc(Nc4ccc(N5CCNCC5)cc4)n3)s2)CC1` [Compound 16, N-[4-(4-Fluorophenyl)-5-{2-[4-(piperazin-1-yl)anilino]pyrimidin-4-yl}-1,3-thiazol-2-yl]-1-methylpiperidine-4-carboxamide Trifluoroacetate] gave an AMP of 0.1.

In turn, `CCCS(=O)(=O)Nc1nc(-c2ccc(F)cc2)c(-c2ccnc(Nc3ccc(N4CCNCC4)cc3)n2)s1` [Compound 17, N-[4-(4-Fluorophenyl)-5-{2-[4-(piperazin-1-yl)anilino]pyrimidin-4-yl}-1,3-thiazol-2-yl]propane-1-sulfonamide Trifluoroacetate] showed an AMP of 0.3.

Consider `O=S(=O)(Nc1nc(-c2ccc(F)cc2)c(-c2ccnc(Nc3ccc(N4CCNCC4)cc3)n2)s1)C1CCNCC1` [Compound 18, N-[4-(4-Fluorophenyl)-5-{2-[4-(piperazin-1-yl)anilino]pyrimidin-4-yl}-1,3-thiazol-2-yl]piperidine-4-sulfonamide Trifluoroacetate], for which the AMP was determined as 0.3.

With `CCOc1nccc(Nc2nccc(-c3sc(C4CCNCC4)nc3-c3ccc(F)cc3)n2)n1` [Compound 30, N-(2-Ethoxypyrimidin-4-yl)-4-[4-(4-fluorophenyl)-2-(piperidin-4-yl)-1,3-thiazol-5-yl]pyrimidin-2-amine Trifluoroacetate], the AMP was 1.7.

In turn, `Oc1cc(Nc2nccc(-c3sc(C4CCNCC4)nc3-c3ccc(F)cc3)n2)ccn1` [Compound 33, 4-({4-[4-(4-Fluorophenyl)-2-(piperidin-4-yl)-1,3-thiazol-5-yl]pyrimidin-2-yl}amino)pyridin-2-ol Trifluoroacetate] had an AMP of 0.2.

On to `COc1cc(Nc2nccc(-c3sc(C4CCNCC4)nc3-c3ccc(F)cc3)n2)cc(C)n1` [Compound 34, 4-[4-(4-Fluorophenyl)-2-(piperidin-4-yl)-1,3-thiazol-5-yl]-N-(2-methoxy-6-methylpyridin-4-yl)pyrimidin-2-amine Trifluoroacetate], for which the AMP is reported as 1.9.

As for `c1cc(Nc2nccc(-c3sc(C4CCNCC4)nc3C3CC3)n2)ncn1` [Compound 58, 4-(4-Cyclopropyl-2-(piperidin-4-yl)thiazol-5-yl)-N-(pyrimidin-4-yl)pyrimidin-2-amine Hydrochloride], the AMP was found to be 1.8.

The same data set, now with this note: Tables 2 and 5.
Turning to `Fc1ccc(-c2nc(C3CCNCC3)sc2-c2ccnc(Nc3nncs3)n2)cc1` [Compound 19, N-(4-(4-(4-Fluorophenyl)-2-(piperidin-4-yl)thiazol-5-yl)pyrimidin-2-yl)-1,3,4-thiadiazol-2-amine], the AMP is < 1e-07 cm/s.

`Cc1nnc(Nc2nccc(-c3sc(C4CCNCC4)nc3-c3ccc(F)cc3)n2)s1` [Compound 20, N-(4-(4-(4-Fluorophenyl)-2-(piperidin-4-yl)thiazol-5-yl)pyrimidin-2-yl)-5-methyl-1,3,4-thiadiazol-2-amine]: the AMP is 8e-07 cm/s.
